{"source": "paper PMC6571133", "about": "“Capsazepine prolongation of the duration of lidocaine block of sensory transmission in mice may be mediated by modulation of HCN channel currents” (PeerJ, 2019)", "key": {"[1]": {"biological_target": "mHCN1 (Mouse HCN1) (Mus musculus, UniProt O88704)", "sequence (O88704 whole entry)": "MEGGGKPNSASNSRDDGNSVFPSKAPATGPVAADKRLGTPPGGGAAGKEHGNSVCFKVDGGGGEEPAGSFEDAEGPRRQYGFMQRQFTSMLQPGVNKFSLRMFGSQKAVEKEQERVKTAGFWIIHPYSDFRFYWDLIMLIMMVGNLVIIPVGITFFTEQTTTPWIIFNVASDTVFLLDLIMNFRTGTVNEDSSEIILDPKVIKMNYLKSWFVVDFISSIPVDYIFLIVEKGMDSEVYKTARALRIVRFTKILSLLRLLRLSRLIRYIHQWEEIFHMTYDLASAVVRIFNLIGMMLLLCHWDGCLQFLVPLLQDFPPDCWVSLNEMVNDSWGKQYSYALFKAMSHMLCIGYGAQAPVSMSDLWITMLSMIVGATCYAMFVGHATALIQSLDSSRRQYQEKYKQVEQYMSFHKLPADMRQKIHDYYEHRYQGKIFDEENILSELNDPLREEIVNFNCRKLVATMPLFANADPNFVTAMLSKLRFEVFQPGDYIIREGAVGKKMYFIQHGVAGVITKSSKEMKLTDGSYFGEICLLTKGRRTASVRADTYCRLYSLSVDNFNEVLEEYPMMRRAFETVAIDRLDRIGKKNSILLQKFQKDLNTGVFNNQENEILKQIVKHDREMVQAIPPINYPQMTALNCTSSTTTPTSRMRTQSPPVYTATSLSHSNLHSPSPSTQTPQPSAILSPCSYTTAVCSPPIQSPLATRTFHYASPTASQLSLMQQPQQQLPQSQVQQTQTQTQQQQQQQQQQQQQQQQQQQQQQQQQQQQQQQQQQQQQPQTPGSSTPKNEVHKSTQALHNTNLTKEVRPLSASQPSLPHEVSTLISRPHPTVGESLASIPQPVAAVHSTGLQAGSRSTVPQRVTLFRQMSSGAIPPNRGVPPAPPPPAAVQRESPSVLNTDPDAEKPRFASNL", "assay": "whole-cell patch clamp of Ih in transfected HEK […] cells", "format": "cell-based"}, "[2]": {"biological_target": "T1, mHCN2 (Mouse HCN2) (Mus musculus, UniProt O88703)", "T1 sequence (O88703 1-863)": "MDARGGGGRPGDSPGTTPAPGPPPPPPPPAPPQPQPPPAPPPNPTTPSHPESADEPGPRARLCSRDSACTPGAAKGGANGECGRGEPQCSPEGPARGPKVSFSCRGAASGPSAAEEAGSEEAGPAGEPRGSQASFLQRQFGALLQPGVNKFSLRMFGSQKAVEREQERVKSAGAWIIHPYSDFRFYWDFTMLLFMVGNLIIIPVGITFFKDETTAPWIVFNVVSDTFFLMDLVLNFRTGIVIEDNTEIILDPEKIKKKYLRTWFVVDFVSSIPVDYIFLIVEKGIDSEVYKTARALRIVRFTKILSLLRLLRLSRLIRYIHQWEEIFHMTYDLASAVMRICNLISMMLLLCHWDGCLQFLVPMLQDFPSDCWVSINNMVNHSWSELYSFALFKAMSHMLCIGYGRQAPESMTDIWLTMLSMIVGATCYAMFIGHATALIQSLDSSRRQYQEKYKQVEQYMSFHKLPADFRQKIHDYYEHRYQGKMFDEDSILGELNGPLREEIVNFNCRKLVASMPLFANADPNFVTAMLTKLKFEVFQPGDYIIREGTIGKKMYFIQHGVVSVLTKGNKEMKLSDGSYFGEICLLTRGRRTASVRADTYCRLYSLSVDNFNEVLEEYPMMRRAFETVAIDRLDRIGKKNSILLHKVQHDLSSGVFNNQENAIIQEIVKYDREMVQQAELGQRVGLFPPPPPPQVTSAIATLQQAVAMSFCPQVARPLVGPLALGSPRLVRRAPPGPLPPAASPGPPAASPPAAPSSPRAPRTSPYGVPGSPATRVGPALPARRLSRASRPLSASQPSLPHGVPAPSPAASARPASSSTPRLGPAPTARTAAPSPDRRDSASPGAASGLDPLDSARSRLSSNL", "assay": "whole-cell patch clamp of Ih in transfected HEK […] cells", "format": "cell-based"}}, "data": [{"smiles": "Oc1cc2c(cc1O)CN(C(=S)NCCc1ccc(Cl)cc1)CCC2", "note": "[CPZ, Capsazepine]", "values": [{"measurement": "IC50", "setting": "[1]", "value": "8.2 ± 0.3", "unit": "µM"}, {"measurement": "IC50", "setting": "[2]", "value": "9.6 ± 0.4", "unit": "µM"}]}]}
